Test results published in patent US11607420B2, “Formulation” (DSM IP ASSETS B.V., priority 2018, dated 2023).

Assay: Absorption of aqueous solution after dissolving powder in water (riboflavin coloration/release)
Format: physicochemical
Details: powder containing 10 mg riboflavin in 1000 ml water for 15 min; measured at 545 nm, spectrophotometer
Method: 20 mg of coated powder (containing 10 mg of Riboflavin) was dissolved in 1000 ml water for 15 min. Absorption of the solution was measured at 545 nm using a spectrophotometer (Genesys 20, thermo Scientific). Absorption of the solution was 0.065.
10 mg of riboflavin powder was dissolved in 1000 ml water for 15 min. Absorption of the solution was measured at 545 nm using a spectrophotometer (Genesys 20, thermo Scientific). Absorption of the solution was 0.386.
16.6 mg of coated powder (containing 10 mg of Riboflavin) was dissolved in 1000 ml water for 15 min. Absorption of the solution was measured at 545 nm using a spectrophotometer (Genesys 20, thermo Scientific). Absorption of the solution was 0.087.

## Cc1cc2nc3c(=O)[nH]c(=O)nc-3n(C[C@H](O)[C@H](O)[C@H](O)CO)c2cc1C [Comparison Example 2, riboflavin]
  Absorption of the solution: 0.386
